# Measurements reported in patent publication US7138231B2 (priority 2000, dated 2006).
# Entries after “also recorded” stand apart in the source; their conditions may differ.
# Columns and labels:
# [1] = tested on: HIV-1 protease site-directed mutants (N88S, L63P, V77I, M46L) in resistance test vector; test: Phenotypic susceptibility assay of resistance test vectors with site-directed mutations in PR
# Description: The resistance test vectors containing a functional luciferase gene cassette were constructed and host cells were transfected with the resistance test vector DNA. […] The resistance test vector viral particles produced by transfecting the resistance test vector DNA into host cells, either in the presence or absence of protease inhibitors, were used to infect target host cells grown either in the absence of NRTI or NNRTI or in the presence of increasing concentrations of the drug. Luciferase activity in infected target host cells in the presence of drug was compared to the luciferase activity in infected target host cells in the absence of drug. […] The IC50 values were determined by plotting percent drug inhibition vs. log10 drug concentration.
# Host cells were seeded in 10-cm-diameter dishes and were transfected one day after plating with resistance test vector plasmid DNA and the envelope expression vector. Transfections were performed using a calcium-phosphate co-precipitation procedure. The cell culture media containing the DNA precipitate was replaced with fresh medium, from one to 24 hours, after transfection. Cell culture media containing resistance test vector viral particles was harvested one to four days after transfection and was passed through a 0.45-mm filter before being stored at −80° C. HIV capsid protein (p24) levels in the harvested cell culture media were determined by an EIA method as described by the manufacturer (SIAC; Frederick, Md.). Before infection, target cells (293 and 293/T) were plated in cell culture media. Control infections were performed using cell culture media from mock transfections (no DNA) or transfections containing the resistance test vector plasmid DNA without the envelope expression plasmid. One to three or more days after infection the media was removed and cell lysis buffer (Promega) was added to each well. Cell lysates were assayed for luciferase activity. The inhibitory effect of the drug was determined using the following equation: % luciferase inhibition=[1−(RLUluc[drug]RLUluc)]×100 where RLUluc [drug] is the relative light unit of luciferase activity in infected cells in the presence of drug and RLUluc is the Relative Light Unit of luciferase activity in infected cells in the absence of drug. IC50 values were obtained from the sigmoidal curves that were generated from the data by plotting the percent inhibition of luciferase activity vs. the log10 drug concentration.
# Mutations are introduced into the resistance test vector through any of the widely known methods for site-directed mutagenesis. […] A resistance test vector containing the specific mutation or group of mutations are then tested using the phenotypic susceptibility assay described above and the susceptibility profile is compared to that of a genetically defined wild-type (drug susceptible) resistance test vector which lacks the specific mutations.
# Resistance test vectors were constructed containing the N88S mutation alone and in combination with other substitutions in PR (L63P, V77I and M46L) known to modulate the HIV susceptibility to PRIs. Mutations were introduced into the resistance test vector using the mega-primer PCR method for site-directed mutagenesis.
# [2] = tested on: HIV-1 patient-derived protease and reverse transcriptase segments (N88S in PR) in resistance test vectors; test: Phenotypic drug susceptibility test with resistance test vectors from patient samples; assay type: cell-based; conditions: for Fold Change vs. reference: N88S
# [3] = tested on: HIV-1 patient viruses with protease L90M; test: Phenotypic susceptibility profiles of 333 patient virus samples with L90M (not 30 or 50); assay type: cell-based
# [4] = tested on: HIV-1 patient viruses with protease L90M; test: Phenotypic susceptibility profiles of 58 patient virus samples with L90M, no other primary mutations; assay type: cell-based; conditions: for % FC > 2.5: IDV; for % w with IDV FC > 2.5: L90M
# [5] = tested on: HIV-1 variants with protease substitutions; conditions: cited from earlier work
compound,measurement,setting,value
CC(C)(C)NC(=O)[C@@H]1CN(Cc2cccnc2)CCN1C[C@@H](O)C[C@@H](Cc1ccccc1)C(=O)N[C@H]1c2ccccc2C[C@H]1O [indinavir],change in susceptibility compared to wild type control RTV,[1]; L63P-N88S-RTV,decreased susceptibility
same,change in susceptibility compared to wild type control RTV,[1]; L63P-V77I-N88S-RTV,decrease in susceptibility; also recorded: resistance
same,change in susceptibility compared to wild type control RTV,[1]; M46L-L63P-N88S-RTV,slight decrease in susceptibility
same,change in susceptibility compared to wild type control RTV,[1]; M46L-L63P-V77I-N88S-RTV,decrease in susceptibility
same,change in susceptibility,[2]; patient sample RTV-360,decrease
same,change in susceptibility,[2]; patient sample RTV-627,decrease
same,change in susceptibility,[2]; patient sample RTV-0732,decrease; also recorded: decreased susceptibility
same,change in susceptibility,[2]; patient sample RTV-0910,decrease
same,change in susceptibility,[2]; patient sample RTV-1208,decrease
same,change in susceptibility,[2]; patient sample RTV-3542,decrease
same,change in susceptibility,[2]; patient sample RTV-3654,decrease
same,wt % > 2.5,"[3]; Indinavir FC>2.5, L90M, position 10 wild type",66.7%
same,wt % > 2.5,"[3]; Indinavir FC>2.5, L90M, position 13 wild type",87.1%
same,wt % > 2.5,"[3]; Indinavir FC>2.5, L90M, position 20 wild type",81.2%
same,wt % > 2.5,"[3]; Indinavir FC>2.5, L90M, position 46 wild type",76.3%
same,wt % > 2.5,"[3]; Indinavir FC>2.5, L90M, position 53 wild type",83.2%
same,wt % > 2.5,"[3]; Indinavir FC>2.5, L90M, position 54 wild type",76.0%
same,wt % > 2.5,"[3]; Indinavir FC>2.5, L90M, position 63 wild type",50.0%
same,wt % > 2.5,"[3]; Indinavir FC>2.5, L90M, position 71 wild type",69.0%
same,wt % > 2.5,"[3]; Indinavir FC>2.5, L90M, position 73 wild type",80.6%
same,wt % > 2.5,"[3]; Indinavir FC>2.5, L90M, position 74 wild type",87.0%
same,wt % > 2.5,"[3]; Indinavir FC>2.5, L90M, position 82 wild type",78.3%
same,wt % > 2.5,"[3]; Indinavir FC>2.5, L90M, position 84 wild type",79.0%
same,wt % > 2.5,"[3]; Indinavir FC>2.5, L90M, position 95 wild type",83.5%
same,mt % > 2.5,"[3]; Indinavir FC>2.5, listed as 90: all samples with L90M",84.7%
same,wt % > 10,"[3]; Indinavir FC>10, L90M, position 10 wild type",23.1%
same,wt % > 10,"[3]; Indinavir FC>10, L90M, position 20 wild type",47.2%
same,wt % > 10,"[3]; Indinavir FC>10, L90M, position 36 wild type",48.9%
same,wt % > 10,"[3]; Indinavir FC>10, L90M, position 46 wild type",44.4%
same,wt % > 10,"[3]; Indinavir FC>10, L90M, position 54 wild type",36.3%
same,wt % > 10,"[3]; Indinavir FC>10, L90M, position 55 wild type",51.8%
same,wt % > 10,"[3]; Indinavir FC>10, L90M, position 62 wild type",45.3%
same,wt % > 10,"[3]; Indinavir FC>10, L90M, position 71 wild type",37.0%
same,wt % > 10,"[3]; Indinavir FC>10, L90M, position 72 wild type",50.0%
same,wt % > 10,"[3]; Indinavir FC>10, L90M, position 74 wild type",57.3%
same,wt % > 10,"[3]; Indinavir FC>10, L90M, position 82 wild type",39.9%
same,wt % > 10,"[3]; Indinavir FC>10, L90M, position 84 wild type",46.3%
same,wt % > 10,"[3]; Indinavir FC>10, L90M, position 85 wild type",52.3%
same,wt % > 10,"[3]; Indinavir FC>10, L90M, position 95 wild type",51.6%
same,mt % > 10,"[3]; Indinavir FC>10, listed as 90: all samples with L90M",53.8%
same,% FC > 2.5,[4]; L90M + mutation at position 46,88%
same,% FC > 2.5,[4]; L90M + mutation at position 71,89%
same,% FC > 2.5,"[4]; L90M + mutation at position 71, listed as IDV",89%
same,% FC > 2.5,[4]; L90M + mutation at position 73,89%
same,% FC > 2.5,"[4]; L90M + mutation at position 73, listed as IDV",89%
same,% FC > 2.5,[4]; listed as 90: all viruses with L90M,69%
same,% w with IDV FC > 2.5,[4]; number of secondary mutations 0,69%
same,% w with IDV FC > 2.5,[4]; number of secondary mutations 1,70%
same,% w with IDV FC > 2.5,[4]; number of secondary mutations 2,70%
same,% w with IDV FC > 2.5,[4]; number of secondary mutations 3,80%
same,% w with IDV FC > 2.5,[4]; number of secondary mutations 4,87%
same,% w with IDV FC > 2.5,[4]; number of secondary mutations 5,100%
same,% w with IDV FC > 2.5,[4]; number of secondary mutations 6,100%
same,loss of susceptibility,"[5]; mutant HIV-1 clones with mutations at residues 46, 63, and 82",fourfold
same,loss of susceptibility compared with the wild type,"[5]; selection in MT-4 cells, substitutions at residues 32, 46, 71, and 82",6.1 fold
Cc1c(O)cccc1C(=O)N[C@@H](CSc1ccccc1)[C@H](O)CN1C[C@H]2CCCC[C@H]2C[C@H]1C(=O)NC(C)(C)C [nelfinavir],change in susceptibility compared to wild type control RTV,[1]; L63P-N88S-RTV,decreased susceptibility
same,change in susceptibility compared to wild type control RTV,[1]; L63P-V77I-N88S-RTV,decrease in susceptibility; also recorded: resistance
same,change in susceptibility compared to wild type control RTV,[1]; L63P-V77I-RTV,slight decrease in susceptibility
same,change in susceptibility compared to wild type control RTV,[1]; M46L-L63P-N88S-RTV,decrease in susceptibility
same,change in susceptibility compared to wild type control RTV,[1]; M46L-L63P-V77I-N88S-RTV,decrease in susceptibility
same,change in susceptibility compared to wild type control RTV,[1]; N88S-RTV,slightly less susceptible
same,change in susceptibility,[2]; patient sample RTV-360,decrease
same,change in susceptibility,[2]; patient sample RTV-627,decrease
same,change in susceptibility,[2]; patient sample RTV-0732,decrease; also recorded: decreased susceptibility
same,change in susceptibility,[2]; patient sample RTV-0910,decrease
same,change in susceptibility,[2]; patient sample RTV-1208,decrease
same,change in susceptibility,[2]; patient sample RTV-3542,decrease
same,change in susceptibility,[2]; patient sample RTV-3654,decrease
same,increase in 90% effective concentration,[5]; I84V and D30N single mutants and M46I/I84V double mutant of HIV-1 NL4-3,fivefold
same,change in susceptibility,"[5]; M46I, L63P, or A71V alone",no change in susceptibility
same,reduced susceptibility,"[5]; variant P22, 22 serial passages of HIV-1 NL4-3",sevenfold
same,decreased susceptibility,"[5]; variant P28, additional six passages",30 fold
CC(C)c1nc(CN(C)C(=O)N[C@H](C(=O)N[C@@H](Cc2ccccc2)C[C@H](O)[C@H](Cc2ccccc2)NC(=O)OCc2cncs2)C(C)C)cs1 [ritonavir],change in susceptibility compared to wild type control RTV,[1]; N88S-RTV,more susceptible
same,Fold Change vs. reference,[1]; site-directed mutation N88S,0.36 fold
same,Fold Change vs. reference,[1]; site-directed mutations L63P,1.27 fold
same,Fold Change vs. reference,"[1]; site-directed mutations L63P, N88S",0.77 fold
same,Fold Change vs. reference,"[1]; site-directed mutations L63P, V77I",1.73 fold
same,Fold Change vs. reference,"[1]; site-directed mutations L63P, V77I, N88S",1.39 fold
same,Fold Change vs. reference,"[1]; site-directed mutations M46L, L63P, N88S",0.85 fold
same,Fold Change vs. reference,"[1]; site-directed mutations M46L, L63P, V77I, N88S",1.33 fold
same,Fold Change vs. reference,"[2]; patient sample 360, prior PRI IDV, PR I13V, K20M, M36V, N37A, M46I, I62V, L63P, I93L",1.49 fold
same,Fold Change vs. reference,"[2]; patient sample 627, prior PRI IDV, PR I13I/V, E35D, M46L, L63P, I64V, I73V",1.50 fold
same,Fold Change vs. reference,"[2]; patient sample 0732, prior PRI NFV, PR K14R, I15V, K20T, E35D, M36I, R41K, I62V, L63Q",1.72 fold
same,Fold Change vs. reference,"[2]; patient sample 0910, prior PRI NFV, PR M46I, L63P, V77I, I93I/L",1.85 fold
same,Fold Change vs. reference,"[2]; patient sample 1208, prior PRI NFV, PR I62V, L63P, V77I",1.22 fold
same,Fold Change vs. reference,"[2]; patient sample 3542, prior PRI IDV, PR I13V, K14R, N37D, M46I, L63P, I93L",3.36 fold
same,Fold Change vs. reference,"[2]; patient sample 3654, PR I13V, R41K, M46I, L63P, V77I, I93L",1.95 fold
same,change in susceptibility,[2]; patient sample RTV-3542,decrease
same,Percent of viruses with indicated primary mutation(s) with reduced susceptibility (fold change in IC50 > 2.5),[3]; L90M,93.4%
same,Percent of viruses with indicated primary mutation(s) with reduced susceptibility (fold change in IC50 > 10),[3]; L90M,66.1%
same,reduction in sensitivity,[5]; I84V substitution,10 fold
same,level of resistance,[5]; I84V with addition of V82F,up to 20 fold
same,change in drug susceptibility,"[5]; M46I, L63P, A71V introduced into wild-type NL4-3",did not result in significant changes in drug susceptibility
